The values that follow come from patent US20230405134A1, “NOVEL PROTAC CHIMERIC COMPOUND, AND PHARMACEUTICAL COMPOSITION COMPRISING SAME FOR PREVENTING, AMELIORATING, OR TREATING DISEASES THROUGH TARGET PROTEIN DEGRADATION” (POSTECH RESEARCH AND BUSINESS DEVELOPMENT FOUNDATION, priority 2020, published 2023).

Where a SMILES comes first, the peptide text is derived from it. Bridges are numbered along the chain shown (N, C = ends). [ ]: non-standard residue; d: D form. Cha = N[C@@H](CC1CCCCC1)C(=O)O; S5 = C=CCCC[C@](C)(N)C(=O)O

In one assay the test system is CSF-1. As to the kind of experiment: CSF-1 mRNA level by RT-qPCR in MDA-MB-231 cells. In kind it is cell-based, human. The conditions noted are these: 12 hours. An excerpt:
(§1) The pharmacological effects on SRC-1 dependent signal transmission were explored using the previously discovered SRC-1 degrading substance. The SRC-1 is overexpressed in various cancers and plays a pivotal role in increasing cell migration and invasion by regulating the expression of related genes. Therefore, when treated with ND1-YL2, an SRC-1 degrading substance, the expression of genes stimulated by SRC-1, such as colony stimulating factor-1 (CSF-1), a gene encoding the cytokine CSF-1 that induces cell differentiation and migration, will be suppressed. To confirm this, MDA-MB-231 cells were treated with DMSO and various concentrations of ND1-YL2, YL2 or N-degron tetrapeptide for 12 hours, and the mRNA level of CSF-1 was normalized to 18S level. Confirmation was made using quantitative real-time polymerase chain reaction (RT-qPCR). MDA-MB-231 cells were seeded at 2×10^5 cells per well. After 24 hours, compounds (YL2, RLAA or ND1-YL2) were treated in Opti-MEM medium for 12 hours. Subsequently, general mRNA isolation was performed using TRI reagent (Takara), and total mRNA was isolated from the cells. The absorbance of total mRNA was measured with a Tecan F200 Nanophotometer, and reverse transcription was performed using AccuPower RocketScript Cycle RT PreMix (Bioneer). Quantitative real-time PCR for CSF-1, E-Cadherin and 18S was performed using a StepOnePlus Real-Time PCR System and SYBR Green mix (Applied Biosystems) according to the manufacturer's manual.
(In general: Real-time PCR tracks product formation cycle by cycle.)

For another assay, the system named is E-cadherin. Briefly: E-cadherin mRNA level by RT-qPCR in MDA-MB-231 cells. Particulars: 12 hours. In kind it is cell-based, human.
Description: as §1
In addition, the effect of the ND1-YL2 on the expression of E-cadherin, a tumor suppressor gene that plays an important role in cell-cell adhesion, was tested. Since SRC-1 protein is known to suppress the E-cadherin expression, the ND1-YL2 will upregulate the E-cadherin by degrading SRC-1.

The test system of assay [1] is MDA-MB-231 cells. As to the kind of experiment: Gap closure migration assay. In kind it is cell-based, human. Particulars: 20 μM, 72 hours. On the procedure:
Based on the results that the SRC-1 degradation effectively affects the transcription mediated by SRC-1 (FIGS. 18A and 18B), it was predicted that ND1-YL2 would exert an inhibitory effect on downstream signaling pathways such as increased cancer cell migration and invasion. To test this, we first performed a gap closure migration assay using an invasive MDA-MB-231 cell line. MDA-MB-231 cells (70 μL of 4×10^5 cells/mL) were seeded in culture insert 2 wells (ibidi, 80209) pre-inserted into p-dishes (ibidi) under the conditions of 37° C. and 5% CO2. The culture insert 2 wells was gently removed with sterile tweezers. The cells were treated with DMSO, YL2 (20 […]), RLAA (20 μM) or ND1-YL2 (20 μM) in Opti-MEM medium for 72 hours. Images were obtained by a camera (Olympus) attached to an optical microscope. The cells were grown in the culture insert wells, and the inserts were removed to create intercellular gaps inside the wells. Subsequently, after treated with DMSO, YL2, RLAA peptide or ND1-YL2, the cells were cultured for 72 hours and the degree of cell migration was observed. The cell migration was quantified by analyzing the images of cells filling the gap.

In assay [2] the test system is MDA-MB-231 cells. As to the kind of experiment: Matrigel invasion assay. The assay is classed as cell-based, human. Particulars: 24 hours; ND1-YL2 various concentrations, YL2 and RLAA 20 μM. The method, then: The inhibition of cell migration may be due to the inhibitory effect of ND1-YL2 on cell growth. In order to exclude this possibility, the invasive ability of cells treated with ND1-YL2 was confirmed. A Corning Matrigel insert (Corning) was placed in a 24-well plate. After hydrating the Matrigel insert with an FBS-free DMEM medium for 2 hours in a CO2 incubator, MDA-MB-231 cells were cultured in the Matrigel insert (4×10^4 cells/insert) with 125 μL of Opti-MEM medium. Another 125 μl of compound containing Opti-MEM medium was added to the insert. The lower chamber was filled with 500 μL of DMEM medium containing 10% FBS. The Matrigel chamber was cultured for 24 hours under the conditions of 37° C. and 5% CO2. The cell culture media of the upper and lower chambers were removed and washed three times with cold DPBS. Non-invasive cells were then removed with a cotton swab. The bottom of the chamber was fixed with 4% formaldehyde for 10 minutes at room temperature, and stained with Hoechst 33342 (5 μg/mL) for 5 minutes in a CO2 incubator. After washed with DPBS, images of infiltrated cells were obtained by a fluorescence microscope. The percentage of the invasive cells was calculated using the product manual. MDA-MB-231 cells were treated with various concentrations of ND1-YL2, N-degron (20 μM) or YL2 (20 μM). After 24 hours, images of the invaded cells were obtained by a fluorescence microscope, and the number of invaded cells was quantified through the images. […] The inhibitory activity of ND1-YL2 on cell migration and invasion is in good agreement with previous SRC-1 knockdown experiments.

Another assay addresses SRC-1 (Homo sapiens, UniProt Q15788). As to the kind of experiment: SRC-1 expression level in MDA-MB-231 cells by Western blot. The assay is classed as cell-based. Details: endogenous in cells; host or cells: MDA-MB-231. The conditions noted are these: 20 μM, 12 hours. (A western blot detects proteins with antibodies after separation by electrophoresis.)
For assay [3], the target named is T1, UBR box (residues 113-194) in the UBR1 E3 ubiquitin ligase of S. cerevisiae (S. cerevisiae, UniProt P19812 113-194).
T1 construct: range 113-194; Expressed and purified as in Nat; Struct; Mol. Biol. 2010, 17, 1175-1181
T1 sequence (looked up): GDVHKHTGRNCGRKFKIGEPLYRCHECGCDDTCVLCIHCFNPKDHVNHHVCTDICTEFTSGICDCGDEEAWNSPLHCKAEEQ
As to the kind of experiment: competitive fluorescence polarization on the UBR box (as the sentence implies; the origin of the value is not stated). A general note: Polarisation of emitted light reports the rotation of a fluorescent probe.

Sequence of SRC-1 (Q15788 whole entry, the tested form may be a part): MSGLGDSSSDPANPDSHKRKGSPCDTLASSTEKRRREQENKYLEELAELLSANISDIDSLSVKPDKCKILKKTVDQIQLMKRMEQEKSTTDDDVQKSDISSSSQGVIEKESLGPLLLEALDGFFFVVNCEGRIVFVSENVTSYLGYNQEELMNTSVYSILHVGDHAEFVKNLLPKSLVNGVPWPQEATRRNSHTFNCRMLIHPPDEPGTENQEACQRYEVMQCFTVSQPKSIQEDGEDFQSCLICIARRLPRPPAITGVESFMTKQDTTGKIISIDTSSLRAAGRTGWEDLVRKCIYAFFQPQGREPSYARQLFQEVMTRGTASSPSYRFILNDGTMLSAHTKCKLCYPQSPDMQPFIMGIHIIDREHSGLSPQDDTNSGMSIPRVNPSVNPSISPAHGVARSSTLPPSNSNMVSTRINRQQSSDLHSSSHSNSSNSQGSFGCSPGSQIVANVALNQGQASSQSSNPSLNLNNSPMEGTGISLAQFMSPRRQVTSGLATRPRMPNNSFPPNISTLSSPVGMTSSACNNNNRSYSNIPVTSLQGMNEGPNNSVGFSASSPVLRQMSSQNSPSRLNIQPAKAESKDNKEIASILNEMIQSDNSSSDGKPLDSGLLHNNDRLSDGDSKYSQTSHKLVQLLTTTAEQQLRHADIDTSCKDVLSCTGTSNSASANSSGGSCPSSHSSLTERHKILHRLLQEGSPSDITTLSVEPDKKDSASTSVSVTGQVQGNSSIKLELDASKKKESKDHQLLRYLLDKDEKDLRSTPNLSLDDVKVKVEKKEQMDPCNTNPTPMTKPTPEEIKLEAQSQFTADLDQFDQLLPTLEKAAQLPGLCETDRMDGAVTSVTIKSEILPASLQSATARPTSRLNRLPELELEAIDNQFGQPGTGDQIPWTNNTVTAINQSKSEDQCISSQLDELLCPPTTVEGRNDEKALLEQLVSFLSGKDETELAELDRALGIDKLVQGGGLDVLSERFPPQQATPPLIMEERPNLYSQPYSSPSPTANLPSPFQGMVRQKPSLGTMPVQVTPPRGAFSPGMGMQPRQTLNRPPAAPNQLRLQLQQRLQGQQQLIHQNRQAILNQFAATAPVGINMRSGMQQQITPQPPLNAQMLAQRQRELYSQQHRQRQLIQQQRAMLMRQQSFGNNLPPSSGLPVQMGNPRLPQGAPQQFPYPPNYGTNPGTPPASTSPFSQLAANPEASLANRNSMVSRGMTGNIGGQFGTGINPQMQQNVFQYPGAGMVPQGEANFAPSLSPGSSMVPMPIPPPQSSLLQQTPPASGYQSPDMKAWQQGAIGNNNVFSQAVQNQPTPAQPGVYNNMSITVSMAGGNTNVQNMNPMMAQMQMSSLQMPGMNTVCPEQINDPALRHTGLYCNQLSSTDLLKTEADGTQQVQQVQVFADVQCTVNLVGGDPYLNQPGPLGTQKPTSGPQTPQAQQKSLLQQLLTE

Regarding `CC(C)C[C@H](NC(=O)[C@@H](N)CCCNC(=N)N)C(=O)N[C@@H](C)C(=O)N[C@@H](C)C(N)=O` [RLAA] (H-RLAA-NH2), the “Effect on CSF-1 expression (mRNA normalized to 18S)” value in the assay with CSF-1 was “did not significantly affect”. Also, the “Effect on E-cadherin expression (mRNA)” value in the assay on E-cadherin is “no effect”. In the assay with MDA-MB-231 cells [1], the “Existing gaps maintained (cell migration)” value was “gaps were completely filled”. Moreover, the “Effect on cell invasion” value with MDA-MB-231 cells [2] was “no significant effect”. For the same molecule, the “SRC-1 degradation, single agents compared” value on SRC-1 is given as “Neither YL2 nor RLAA tetrapeptide per se had any effect”.
Take `CC(C)C[C@@H]1NC(=O)[C@H](CCCCN)NC(=O)[C@@](C)(NC(=O)[C@H](CC(C)C)NC(=O)[C@H](CC(=O)O)NC(=O)[C@H](CCC(N)=O)NC(=O)[C@H](CCC(=O)O)NC(=O)[C@@H](NC(=O)[C@@H]2CCCN2C(=O)[C@@H]2CCCN2C(=O)[C@H](CC(C)C)NC(=O)[C@@H](N)CC(C)C)[C@@H](C)O)CCC/C=C\CCC[C@@](C)(C(=O)N[C@@H](Cc2ccc(O)cc2)C(N)=O)NC(=O)[C@H](CC2CCCCC2)NC1=O` [YL2] (H-LLPPTEQDL[S5]KL[Cha][S5]Y-NH2; staple (Z) 10-14; N-terminus and C-terminus assumed): in the assay on CSF-1, the “Effect on CSF-1 expression (mRNA normalized to 18S)” value is on record as “did not significantly affect”. Also, the “Effect on E-cadherin expression (mRNA)” value with E-cadherin is listed as “no effect”. Moreover, the “Existing gaps maintained (cell migration)” value in the assay with MDA-MB-231 cells [1] is “gaps were completely filled”. Also, in the assay with MDA-MB-231 cells [2], the “Effect on cell invasion” value is “no significant effect”. Besides, the “SRC-1 degradation, single agents compared” value on SRC-1 is given as “Neither YL2 nor RLAA tetrapeptide per se had any effect”.

B1: RLAA tetrapeptide (peptide)
peptide: RLAA
notes: also called RLAA peptide; N-degron tetrapeptide
With B1, in assay [3], the Ki is 4.2 µM. In other words, the single-digit micromolar range.

Broadly, the Ki is the dissociation constant of the complex between target and ligand, obtained from inhibition or displacement. A lower Ki goes with higher affinity.
